# In patent publication US8343512B2, “Treatment of allergic conditions using a composition containing synthetic adjuvant” (Infectious Disease Research Institute, priority 2006, dated 2013):
# How the values were obtained:
# ML0276 antigen = ML0276 antigen with CpG, Imiquimod, GLA-SE or mix in mice, IFN-γ CD4+ T cell ICS; type: in vivo, Mice (C57BL/6); conditions: adjuvant given with ML0276 antigen 10 μg; saline background 0.04%
# Protocol: Mice (three C57BL/6 animals per group) were immunized three times at three-week intervals with the ML0276 antigen (10 μg per animal for each immunization) adjuvanted with aqueous formulations containing CpG (CpG1826, Coley Pharmaceutical, 25 μg per animal for each immunization), or Imiquimod (IMQ) (3M Pharma, 25 μg per animal for each immunization), or GLA (Avanti Polar Lipids, Inc., Alabaster, Ala.; product number 699800; 25 μg per animal for each immunization, according to the procedure used in Example 3 above, GLA-SE), a mix of the three, or saline as negative control. Three weeks after the last injection, mice were sacrificed and spleen collected to analyze CD4+ T cell-dependent IFN-γ cytokine responses to in vitro ML0276 antigen stimulation by ICS and Flow cytometry according to published methods. Expression of IFN-γ cytokine has been associated with protective TH1 responses against M. leprae infection.
# Leish-110f antigen = Leish-110f antigen with different amounts of GLA-SE in mice, IgG1/IgG2a ELISA; type: in vivo, Mice (Balb/c)
# Protocol: Mice (three Balb/c animals per group) were immunized three times at two-week intervals with the Leish-110f antigen (10 μg per animal for each immunization) formulated in a stable emulsion containing different amounts of GLA (Avanti Polar Lipids, Inc., Alabaster, Ala.; product number 699800; 40, 20, 5, or 1 μg per animal for each immunization according to the procedure used in Example 3 above, GLA-SE). Sera were collected by bleeding animals one week after the first immunization, and serum levels of IgG1 and IgG2a antibodies specific for Leish-110f were examined by ELISA according to published methods (Id.).
# Human whole blood cells = test: GLA stimulation of human blood cells, IL-1β ELISA; type: cell-based; conditions: 16 hours
# Protocol: Human whole blood cells were cultured with various adjuvant concentrations of either synthetic GLA (Avanti Polar Lipids, Inc., Alabaster, Ala.; product number 699800) or the natural product MPL® (GSK Biologicals, Rixensart, Belgium), achieved by diluting an aqueous adjuvant preparation in cell culture medium (DMEM containing 10% fetal bovine serum). Blood cells were maintained for 16 hours at 37° C. in a humidified atmosphere containing 5% CO2, prior to collection of cell-free culture supernatants. Supernatant fluids were assayed for soluble human cytokine IL-1β using specific sandwich ELISA assay kit (eBiosciences, San Diego, Calif.) according to the manufacturer's instructions.
# [1] = test system: Dendritic cells derived from purified blood CD14+ monocytes; test: GLA stimulation of human dendritic cells, CD86 surface expression by flow cytometry; type: cell-based
# Source text: Dendritic cells were derived from purified blood CD14+ monocytes following a published protocol. Various adjuvant concentrations of either synthetic GLA (Avanti Polar Lipids, Inc., Alabaster, Ala.; product number 699800) or the natural product MPL® (GSK Biologicals, Rixensart, Belgium) were achieved by diluting an aqueous adjuvant preparation in cell culture medium (RPMI containing 5% human serum). Prior to collection and analysis of the expression of activation markers, cells were maintained for 44 hours at 37° C. in a humidified atmosphere containing 5% CO2. Expression levels of the costimulatory molecule CD86 at the surface of DC were used as an indicator of cell activation and measured by flow cytometry on a LSRII instrument (BD Biosciences, San Jose, Calif.) using CD86-specific fluorochrome-labeled antibody (eBiosciences, San Diego, Calif.) according to the manufacturer's instructions.
# Influenza = test: Fluzone vaccine with GLA-AF or GLA-SE in mice, anti-Fluzone IgG ELISA and HAI; type: in vivo, Mice (Balb/c); conditions: GLA 20 μg in aqueous or stable oil formulation; compared to Fluzone alone
# Protocol: Mice (three Balb/c animals per group) were immunized twice at three-week intervals with the Fluzone vaccine (Sanofi-Aventis, Swiftwater, Pa., at 1/25 (20 μl) and 1/250 (2 μl) of the human dosage, alone, or formulated in (i) an aqueous emulsion containing GLA (Avanti Polar Lipids, Inc., Alabaster, Ala.; product number 699800; 20 μg per animal for each immunization) according to the procedure used in Example 1 above (“GLA-AF”), or (ii) a stable emulsion containing GLA (Avanti Polar Lipids, Inc., Alabaster, Ala.; product number 699800; 20 μg per animal for each immunization) according to the procedure used in Example 3 above (“GLA-SE”). Sera were collected by bleeding animals one week after each immunization, and serum levels of total IgG antibodies specific for Fluzone were examined by ELISA according to published methods (Id.). Serum levels of virus neutralizing antibodies were also examined by Hemagglutination Inhibition Assay (HAI) according to published methods.
# USP Rabbit Pyrogen Test = conditions: in vivo
# Protocol: GLA and MPL were evaluated for pyrogenicity/toxicity using the United States Pharmacopeial (USP) rabbit pyrogen test method. GLA was tested at the same doses and conditions commonly used for MPL.
# ID83 antigen = ID83 antigen with GLA-SE, GLA/CpG-SE or GLA/GDQ-SE in mice, intracellular cytokine staining; type: in vivo, Mice (C57BL/6); conditions: GLA/GDQ-SE or GLA/CpG-SE versus GLA-SE
smiles,measurement,setting,value
"CC(C)Cn1cnc2c(N)nc3ccccc3c21 [IMQ, Imiquimod]",frequency of ML0276 specific IFN-γ+ CD4+ T cells (positive cells),ML0276 antigen,0.11%
"CCCCCCCCCCCCCC(=O)O[C@H](CCCCCCCCCCC)CC(=O)O[C@@H]1[C@@H](NC(=O)C[C@@H](CCCCCCCCCCC)OC(=O)CCCCCCCCCCC)[C@H](OC[C@H]2O[C@H](O)[C@H](NC(=O)C[C@H](O)CCCCCCCCCCC)[C@@H](OC(=O)C[C@H](O)CCCCCCCCCCC)[C@@H]2O)O[C@H](CO)[C@H]1OP(=O)(O)O [GLA, glucopyranosyl lipid adjuvant]",Leish-110f-specific IgG1 and IgG2a antibody titers,"Leish-110f antigen; GLA 40, 20, 5, or 1 μg in GLA-SE, one week after the first immunization",GLA dose-dependent
same,predominant Leish-110f-specific antibody isotype,Leish-110f antigen; all concentrations of GLA tested,Predominance of TH1 associated IgG2a antibody
same,concentration equivalent in potency (IL-1β secretion),Human whole blood cells,92 nM
same,active at concentrations lower compared to MPL for human dendritic cell maturation,[1]; CD86 expression,at least 10 fold
same,"CD86 expression, GLA versus MPL","[1]; additional three donors, 1000 ng/ml to 1 ng/mL",lower doses of GLA achieved higher CD86 expression than MPL
same,Total IgG and neutralizing antibody titers in response to Fluzone vaccination,Influenza,enhanced
same,"pyrogenicity/toxicity, USP<151> requirements",USP Rabbit Pyrogen Test,passed the USP<151> requirements for the absence of pyrogens
"CCNCc1nc2c(N)nc3ccccc3c2n1CC(C)(C)O [GDQ, Gardiquimod]",frequency of ID83 specific cytokine producing T cells on addition of a second TLR ligand to ID83+GLA-SE,ID83 antigen,further increased
